System: 75 nadA (RNA, riboswitch) GGGUUUGGUUGCAACAUCCCCGUGGGUUGGGUGAUGGCUCCAAUCAGAGCCGGAACAGCGAAUCCACUGCAACCGUGA
Assay: in-line probing
Details: 20 mM Mg2+, 100 mM K+; 50 mM Tris-HCl pH 8.3, 23 °C, 42–72 h; apparent

KD: ~ 90 μM
SMILES: NC(=O)c1ccc[n+]([C@@H]2O[C@H](COP(=O)(O)OP(=O)(O)OC[C@H]3O[C@@H](n4cnc5c(N)ncnc54)[C@H](O)[C@@H]3O)[C@@H](O)[C@H]2O)c1

Reference: paper PMC6859854 (2019)
